These results are taken from ChEMBL document CHEMBL2029226, “Molecular Insights into Human Monoamine Oxidase B Inhibition by the Glitazone Anti-Diabetes Drugs” (ACS Med Chem Lett, 2012).

Calls of active or inactive are those of the source. The rule behind the calls is not given here.

Broadly, the Ki is the dissociation constant of the complex between target and ligand, obtained from inhibition or displacement. Higher therefore signals a looser hold on the target.

In data set [1] the target is T1, Amine oxidase [flavin-containing] A (Rattus norvegicus, UniProt P21396).
T1 sequence (P21396 whole entry): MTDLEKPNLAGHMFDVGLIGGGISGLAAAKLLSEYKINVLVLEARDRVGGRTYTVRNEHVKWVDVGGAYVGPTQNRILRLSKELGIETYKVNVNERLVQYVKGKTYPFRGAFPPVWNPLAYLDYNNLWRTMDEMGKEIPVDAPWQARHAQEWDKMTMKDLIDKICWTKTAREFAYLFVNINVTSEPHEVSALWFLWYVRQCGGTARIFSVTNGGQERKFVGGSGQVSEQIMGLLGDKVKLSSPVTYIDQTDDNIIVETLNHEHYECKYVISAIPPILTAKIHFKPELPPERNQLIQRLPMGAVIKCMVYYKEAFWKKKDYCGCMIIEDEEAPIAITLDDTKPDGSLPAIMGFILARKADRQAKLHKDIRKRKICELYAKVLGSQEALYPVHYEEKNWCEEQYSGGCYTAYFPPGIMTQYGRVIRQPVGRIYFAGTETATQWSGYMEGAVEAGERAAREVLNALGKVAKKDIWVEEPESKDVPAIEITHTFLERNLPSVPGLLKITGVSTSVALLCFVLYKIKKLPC
Nature of the data set: Inhibition of rat MAOA expressed in Pichia pastoris at 100 uM.

The target of data set [2] is T2, Amine oxidase [flavin-containing] A (Homo sapiens, UniProt P21397).
T2 sequence (P21397 whole entry): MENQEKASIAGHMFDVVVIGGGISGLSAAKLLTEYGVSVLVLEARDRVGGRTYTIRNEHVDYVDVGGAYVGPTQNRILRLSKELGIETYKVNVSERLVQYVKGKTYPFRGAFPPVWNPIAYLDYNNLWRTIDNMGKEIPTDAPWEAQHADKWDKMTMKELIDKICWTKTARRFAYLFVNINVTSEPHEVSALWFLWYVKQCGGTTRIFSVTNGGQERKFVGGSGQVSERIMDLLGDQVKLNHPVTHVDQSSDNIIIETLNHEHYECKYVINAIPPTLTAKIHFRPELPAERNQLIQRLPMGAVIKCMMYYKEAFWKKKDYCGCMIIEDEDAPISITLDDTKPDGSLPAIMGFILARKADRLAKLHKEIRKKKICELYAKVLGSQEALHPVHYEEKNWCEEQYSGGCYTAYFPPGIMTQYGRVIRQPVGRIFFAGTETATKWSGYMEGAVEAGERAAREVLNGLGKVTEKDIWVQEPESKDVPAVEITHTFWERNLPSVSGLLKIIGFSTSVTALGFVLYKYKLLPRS
The experiment in a line: Inhibition of human MAOA expressed in Pichia pastoris at 100 uM.

The target in data set [3] is Lysine-specific histone demethylase 1A (Homo sapiens) (UniProt O60341). Nature of the data set: Inhibition of human histone demethylase LSD1 up to 100 uM.
Data set [4] has as its target T3, Amine oxidase [flavin-containing] B (Rattus norvegicus, UniProt P19643).
T3 sequence (P19643 whole entry): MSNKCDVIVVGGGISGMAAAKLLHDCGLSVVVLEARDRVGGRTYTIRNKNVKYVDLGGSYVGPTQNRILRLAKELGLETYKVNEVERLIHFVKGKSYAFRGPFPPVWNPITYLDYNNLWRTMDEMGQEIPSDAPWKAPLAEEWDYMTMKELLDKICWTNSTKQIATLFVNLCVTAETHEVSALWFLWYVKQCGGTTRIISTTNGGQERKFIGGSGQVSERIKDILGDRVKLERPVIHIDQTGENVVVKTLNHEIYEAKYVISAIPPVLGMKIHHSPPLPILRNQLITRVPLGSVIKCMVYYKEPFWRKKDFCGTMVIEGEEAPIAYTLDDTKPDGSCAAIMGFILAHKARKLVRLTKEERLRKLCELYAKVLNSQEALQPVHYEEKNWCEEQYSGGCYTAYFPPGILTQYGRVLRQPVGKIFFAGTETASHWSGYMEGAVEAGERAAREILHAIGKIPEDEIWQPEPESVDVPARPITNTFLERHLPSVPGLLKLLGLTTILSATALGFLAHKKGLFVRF
Nature of the data set: Competitive inhibition of rat MAOB expressed in Pichia pastoris.

For data set [5], the target named is T4, Amine oxidase [flavin-containing] B (Homo sapiens, UniProt P27338).
T4 sequence (P27338 whole entry): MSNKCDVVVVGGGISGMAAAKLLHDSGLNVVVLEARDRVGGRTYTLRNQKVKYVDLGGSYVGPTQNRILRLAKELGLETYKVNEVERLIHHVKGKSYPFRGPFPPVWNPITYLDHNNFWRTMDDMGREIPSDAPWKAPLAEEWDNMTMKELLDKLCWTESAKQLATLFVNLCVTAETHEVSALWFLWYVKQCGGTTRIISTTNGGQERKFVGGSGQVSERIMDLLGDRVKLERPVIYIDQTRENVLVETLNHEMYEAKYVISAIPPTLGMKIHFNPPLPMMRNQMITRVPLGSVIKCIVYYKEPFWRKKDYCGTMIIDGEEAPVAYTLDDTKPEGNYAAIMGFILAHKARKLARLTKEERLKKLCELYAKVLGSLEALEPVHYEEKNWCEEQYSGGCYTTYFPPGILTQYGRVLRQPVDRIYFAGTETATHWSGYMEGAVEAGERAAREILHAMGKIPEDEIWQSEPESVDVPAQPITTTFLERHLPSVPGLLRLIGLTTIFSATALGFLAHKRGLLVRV
Nature of the data set: Competitive inhibition of human MAOB expressed in Pichia pastoris.

Data set [6] addresses T2, Amine oxidase [flavin-containing] A. The experiment in a line: Competitive inhibition of human MAOA expressed in Pichia pastoris.
Data set [7] deals with T1, Amine oxidase [flavin-containing] A. The experiment in a line: Competitive inhibition of rat MAOA expressed in Pichia pastoris.
Data set [8] shares this target. Nature of the data set: Uncompetitive inhibition of rat MAOA expressed in Pichia pastoris.
Data set [9] has as its target T3, Amine oxidase [flavin-containing] B. Nature of the data set: Uncompetitive inhibition of rat MAOB expressed in Pichia pastoris.
The target of data set [10] is T4, Amine oxidase [flavin-containing] B. Nature of the data set: Uncompetitive inhibition of human MAOB expressed in Pichia pastoris.
Data set [11] addresses T2, Amine oxidase [flavin-containing] A. Nature of the data set: Uncompetitive inhibition of human MAOA expressed in Pichia pastoris.

For the compound `CCc1ccc(CCOc2ccc(CC3SC(=O)NC3=O)cc2)nc1` (racemic) [PIOGLITAZONE], the “inhibition (INH)” value in [1] and in data set [2] was “Not Active” each time. Besides, the inhibition entry in data set [3] is “inactive”. This compound had a Ki in data set [4] of 2.1 µM.
With `CN(CCOc1ccc(CC2SC(=O)NC2=O)cc1)c1ccccn1` (racemic) [ROSIGLITAZONE], the Ki in data set [5] was 4.2 µM; in [4] it was 5.8 µM; in [6], 27.6 µM; in [7], 32.6 µM. In [3], the inhibition result is “inactive”.
As for `Cc1c(C)c2c(c(C)c1O)CCC(C)(COc1ccc(CC3SC(=O)NC3=O)cc1)O2` (centres undefined) [TROGLITAZONE], the inhibition constant (Ki) in data set [8] turned out to be 4.8 µM; in [9], 10.9 µM; in data set [10] it was 9.5 µM; in data set [11] it was 10.5 µM. For the same compound, the inhibition entry in data set [3] is “inactive”.
